Source: patent publication US11725011B2, “Bicyclic urea kinase inhibitors and uses thereof” (The Broad Institute, Inc., priority 2016, dated 2023)

Assays:
Conditions in all cases: 1 uM
JNK2 = JNK2 (Homo sapiens (Human), UniProt P45984); test: KINOMEscan; format: binding
CAMK2B = CAMK2B (Homo sapiens (Human), UniProt Q13554); test: KINOMEscan; format: binding
SRMS = SRMS (Homo sapiens (Human), UniProt Q9H3Y6); test: KINOMEscan; format: binding
[1] = molecular target: RPS6KA5 (Kin.Dom.2-C-terminal) (Homo sapiens (Human), UniProt O75582); test: KINOMEscan; format: binding
LATS1 = LATS1 (Homo sapiens (Human), UniProt O95835); test: KINOMEscan; format: binding
RET (V804L) = RET (V804L) (Homo sapiens (Human), UniProt P07949, V804L); test: KINOMEscan; format: binding
SGK = SGK (Homo sapiens (Human), UniProt O00141); test: KINOMEscan; format: binding
Sequence of SGK (O00141 whole entry): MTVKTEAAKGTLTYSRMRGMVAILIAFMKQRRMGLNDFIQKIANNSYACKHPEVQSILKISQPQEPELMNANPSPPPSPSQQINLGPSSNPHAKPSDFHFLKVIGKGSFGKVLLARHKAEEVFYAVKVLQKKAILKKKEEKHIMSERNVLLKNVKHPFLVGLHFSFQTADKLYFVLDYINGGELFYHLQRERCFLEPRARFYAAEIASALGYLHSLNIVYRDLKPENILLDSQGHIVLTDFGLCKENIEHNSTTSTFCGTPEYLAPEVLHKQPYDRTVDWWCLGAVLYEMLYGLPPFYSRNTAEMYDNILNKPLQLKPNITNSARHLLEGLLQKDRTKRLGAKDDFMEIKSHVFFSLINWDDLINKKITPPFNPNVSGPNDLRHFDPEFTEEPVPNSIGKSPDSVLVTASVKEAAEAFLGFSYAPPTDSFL

NEK10 = NEK10 (Homo sapiens (Human), UniProt Q6ZWH5); test: KINOMEscan; format: binding
ITK = ITK (Homo sapiens (Human), UniProt Q08881); test: KINOMEscan; format: binding
LYN = LYN (Homo sapiens (Human), UniProt P07948); test: KINOMEscan; format: binding
EPHB1 = EPHB1 (Homo sapiens (Human), UniProt P54762); test: KINOMEscan; format: binding
FLT3 (ITD) = test: KINOMEscan; format: binding
PIK3CA (I800L) = PIK3CA (I800L) (Homo sapiens (Human), UniProt P42336, I800L); test: KINOMEscan; format: binding
Sequence of PIK3CA (I800L) (P42336 whole entry I800L): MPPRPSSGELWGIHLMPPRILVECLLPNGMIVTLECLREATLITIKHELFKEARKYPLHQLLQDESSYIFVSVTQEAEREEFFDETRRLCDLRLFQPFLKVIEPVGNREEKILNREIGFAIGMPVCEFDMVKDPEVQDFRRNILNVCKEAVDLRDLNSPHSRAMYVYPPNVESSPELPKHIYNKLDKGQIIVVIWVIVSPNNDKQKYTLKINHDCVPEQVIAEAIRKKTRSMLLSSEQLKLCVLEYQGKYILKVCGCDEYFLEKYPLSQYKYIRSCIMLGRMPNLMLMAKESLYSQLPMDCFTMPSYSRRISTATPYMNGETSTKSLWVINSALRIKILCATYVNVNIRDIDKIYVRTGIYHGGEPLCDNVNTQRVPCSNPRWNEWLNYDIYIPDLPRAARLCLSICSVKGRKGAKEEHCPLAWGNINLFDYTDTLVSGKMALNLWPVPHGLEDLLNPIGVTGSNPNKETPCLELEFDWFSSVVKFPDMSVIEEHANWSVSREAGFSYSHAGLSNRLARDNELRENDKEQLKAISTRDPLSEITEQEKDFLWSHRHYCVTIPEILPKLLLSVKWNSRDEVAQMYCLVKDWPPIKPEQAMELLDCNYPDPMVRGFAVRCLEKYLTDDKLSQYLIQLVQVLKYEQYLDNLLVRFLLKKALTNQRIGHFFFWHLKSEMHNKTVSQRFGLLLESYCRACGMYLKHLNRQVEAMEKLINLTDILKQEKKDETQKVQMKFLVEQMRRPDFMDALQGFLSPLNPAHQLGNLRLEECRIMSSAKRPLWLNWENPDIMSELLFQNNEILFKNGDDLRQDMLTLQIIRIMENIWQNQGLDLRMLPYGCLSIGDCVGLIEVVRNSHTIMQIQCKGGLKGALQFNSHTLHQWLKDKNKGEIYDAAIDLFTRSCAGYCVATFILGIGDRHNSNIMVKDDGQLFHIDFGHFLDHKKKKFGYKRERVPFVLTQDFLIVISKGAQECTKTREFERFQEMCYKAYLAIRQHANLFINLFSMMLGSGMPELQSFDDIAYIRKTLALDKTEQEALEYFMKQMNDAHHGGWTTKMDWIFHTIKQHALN

PIM1 = PIM1 (Homo sapiens (Human), UniProt P11309); test: KINOMEscan; format: binding
FLT3 (D835Y) = FLT3 (D835Y) (Homo sapiens (Human), UniProt P36888, D835Y); test: KINOMEscan; format: binding
RIPK2 = RIPK2 (Homo sapiens (Human), UniProt O43353); test: KINOMEscan; format: binding
MLK2 = MLK2 (Homo sapiens (Human), UniProt Q02779); test: KINOMEscan; format: binding
TAOK1 = TAOK1 (Homo sapiens (Human), UniProt Q7L7X3); test: KINOMEscan; format: binding
Sequence of TAOK1 (Q7L7X3 whole entry): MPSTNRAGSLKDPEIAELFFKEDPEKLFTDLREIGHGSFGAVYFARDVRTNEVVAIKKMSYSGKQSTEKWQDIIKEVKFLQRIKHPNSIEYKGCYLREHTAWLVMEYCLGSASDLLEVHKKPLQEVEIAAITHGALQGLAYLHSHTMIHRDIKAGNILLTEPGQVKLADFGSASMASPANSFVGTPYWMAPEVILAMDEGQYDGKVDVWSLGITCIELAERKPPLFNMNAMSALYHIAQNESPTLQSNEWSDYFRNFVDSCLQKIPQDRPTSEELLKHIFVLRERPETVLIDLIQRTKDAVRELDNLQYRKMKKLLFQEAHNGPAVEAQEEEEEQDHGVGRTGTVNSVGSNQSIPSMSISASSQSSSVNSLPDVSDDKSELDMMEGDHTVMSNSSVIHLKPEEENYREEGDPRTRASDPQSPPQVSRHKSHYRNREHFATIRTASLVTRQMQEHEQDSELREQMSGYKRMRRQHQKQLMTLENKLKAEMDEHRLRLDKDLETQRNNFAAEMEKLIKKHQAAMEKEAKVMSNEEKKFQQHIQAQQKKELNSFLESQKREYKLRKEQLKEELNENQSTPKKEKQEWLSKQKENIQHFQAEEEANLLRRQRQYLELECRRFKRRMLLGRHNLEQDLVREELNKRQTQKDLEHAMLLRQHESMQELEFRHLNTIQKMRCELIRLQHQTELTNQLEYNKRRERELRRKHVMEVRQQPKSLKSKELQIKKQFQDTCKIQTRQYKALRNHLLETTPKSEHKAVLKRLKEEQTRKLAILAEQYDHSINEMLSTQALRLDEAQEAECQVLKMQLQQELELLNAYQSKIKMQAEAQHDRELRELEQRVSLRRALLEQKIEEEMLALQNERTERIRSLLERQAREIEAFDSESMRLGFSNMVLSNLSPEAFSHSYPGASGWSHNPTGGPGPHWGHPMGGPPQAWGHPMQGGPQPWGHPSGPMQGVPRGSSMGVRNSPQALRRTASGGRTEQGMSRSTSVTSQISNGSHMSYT

STK39 = STK39 (Homo sapiens (Human), UniProt Q9UEW8); test: KINOMEscan; format: binding
PRKD1 = PRKD1 (Homo sapiens (Human), UniProt Q15139); test: KINOMEscan; format: binding
ABL2 = ABL2 (Homo sapiens (Human), UniProt P42684); test: KINOMEscan; format: binding
[2] = molecular target: ABL1 (F317I)-phosphorylated (Homo sapiens (Human), UniProt P00519, F317I); test: KINOMEscan; format: binding
LRRK2 (G2019S) = LRRK2 (G2019S) (Homo sapiens (Human), UniProt Q5S007, G2019S); test: KINOMEscan; format: binding
MINK = MINK (Homo sapiens (Human), UniProt Q8N4C8); test: KINOMEscan; format: binding
MUSK = MUSK (Homo sapiens (Human), UniProt O15146); test: KINOMEscan; format: binding
INSR = INSR (Homo sapiens (Human), UniProt P06213); test: KINOMEscan; format: binding
Sequence of INSR (P06213 28-1382): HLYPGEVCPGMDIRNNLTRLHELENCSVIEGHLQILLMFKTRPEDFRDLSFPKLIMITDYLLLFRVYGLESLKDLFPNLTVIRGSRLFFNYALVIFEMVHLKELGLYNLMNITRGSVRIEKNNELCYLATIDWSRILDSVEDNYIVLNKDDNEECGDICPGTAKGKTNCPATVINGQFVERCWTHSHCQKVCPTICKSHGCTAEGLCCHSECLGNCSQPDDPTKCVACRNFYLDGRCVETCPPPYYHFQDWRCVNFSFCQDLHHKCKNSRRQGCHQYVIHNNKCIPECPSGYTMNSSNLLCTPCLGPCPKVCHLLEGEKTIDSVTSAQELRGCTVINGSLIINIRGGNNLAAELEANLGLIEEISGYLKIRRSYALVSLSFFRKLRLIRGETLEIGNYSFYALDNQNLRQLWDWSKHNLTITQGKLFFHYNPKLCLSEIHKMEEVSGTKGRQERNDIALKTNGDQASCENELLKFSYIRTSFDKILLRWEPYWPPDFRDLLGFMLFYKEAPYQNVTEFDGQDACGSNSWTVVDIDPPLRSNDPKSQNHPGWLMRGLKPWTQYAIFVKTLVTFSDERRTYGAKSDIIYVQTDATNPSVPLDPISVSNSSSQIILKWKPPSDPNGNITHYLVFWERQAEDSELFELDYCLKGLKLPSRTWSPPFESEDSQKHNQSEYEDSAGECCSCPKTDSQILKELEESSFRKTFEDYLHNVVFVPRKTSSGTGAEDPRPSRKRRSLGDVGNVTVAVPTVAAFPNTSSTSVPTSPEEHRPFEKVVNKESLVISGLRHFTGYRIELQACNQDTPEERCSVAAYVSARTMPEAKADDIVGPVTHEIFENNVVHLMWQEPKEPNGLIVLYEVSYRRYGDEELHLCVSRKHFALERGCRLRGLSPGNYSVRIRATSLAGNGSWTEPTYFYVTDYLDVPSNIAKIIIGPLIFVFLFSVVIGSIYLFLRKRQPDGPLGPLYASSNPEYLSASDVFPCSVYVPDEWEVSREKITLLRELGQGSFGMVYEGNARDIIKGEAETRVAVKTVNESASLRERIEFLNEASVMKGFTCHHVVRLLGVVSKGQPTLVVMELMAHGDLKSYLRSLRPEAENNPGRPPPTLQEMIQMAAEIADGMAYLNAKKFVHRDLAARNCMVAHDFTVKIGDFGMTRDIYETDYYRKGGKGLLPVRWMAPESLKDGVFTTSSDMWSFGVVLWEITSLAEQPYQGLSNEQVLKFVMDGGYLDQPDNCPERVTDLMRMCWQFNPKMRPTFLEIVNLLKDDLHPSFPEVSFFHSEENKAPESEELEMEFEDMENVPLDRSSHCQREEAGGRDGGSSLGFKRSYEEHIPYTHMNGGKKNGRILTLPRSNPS

[3] = molecular target: ABL1 (Y253F)-phosphorylated (Homo sapiens (Human), UniProt P00519, Y253F); test: KINOMEscan; format: binding
PIK3C2B = PIK3C2B (Homo sapiens (Human), UniProt O00750); test: KINOMEscan; format: binding
DCAMKL1 = DCAMKL1 (Homo sapiens (Human), UniProt O15075); test: KINOMEscan; format: binding
FLT1 = FLT1 (Homo sapiens (Human), UniProt P17948); test: KINOMEscan; format: binding
EPHB2 = EPHB2 (Homo sapiens (Human), UniProt P29323); test: KINOMEscan; format: binding
LTK = LTK (Homo sapiens (Human), UniProt P29376); test: KINOMEscan; format: binding
MAPKAPK5 = MAPKAPK5 (Homo sapiens (Human), UniProt Q8IW41); test: KINOMEscan; format: binding
Sequence of MAPKAPK5 (Q8IW41 whole entry, looked up): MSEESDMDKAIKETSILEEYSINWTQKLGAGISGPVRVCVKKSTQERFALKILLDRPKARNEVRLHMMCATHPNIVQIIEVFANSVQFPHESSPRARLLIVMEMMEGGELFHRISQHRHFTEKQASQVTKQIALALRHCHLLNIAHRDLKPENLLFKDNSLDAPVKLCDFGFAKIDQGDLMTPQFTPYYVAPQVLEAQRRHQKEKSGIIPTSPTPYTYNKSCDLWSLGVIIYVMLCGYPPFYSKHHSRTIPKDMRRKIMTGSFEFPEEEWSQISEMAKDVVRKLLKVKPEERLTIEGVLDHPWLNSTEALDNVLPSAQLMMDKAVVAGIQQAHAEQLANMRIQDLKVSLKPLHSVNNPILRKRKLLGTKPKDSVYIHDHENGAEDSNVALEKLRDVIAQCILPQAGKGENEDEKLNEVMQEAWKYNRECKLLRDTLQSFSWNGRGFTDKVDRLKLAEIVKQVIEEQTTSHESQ

CSNK1G1 = CSNK1G1 (Homo sapiens (Human), UniProt Q9HCP0); test: KINOMEscan; format: binding
QSK = QSK (Homo sapiens (Human), UniProt Q9Y2K2); test: KINOMEscan; format: binding
PRKCD = PRKCD (Homo sapiens (Human), UniProt Q05655); test: KINOMEscan; format: binding
Sequence of PRKCD (Q05655 whole entry): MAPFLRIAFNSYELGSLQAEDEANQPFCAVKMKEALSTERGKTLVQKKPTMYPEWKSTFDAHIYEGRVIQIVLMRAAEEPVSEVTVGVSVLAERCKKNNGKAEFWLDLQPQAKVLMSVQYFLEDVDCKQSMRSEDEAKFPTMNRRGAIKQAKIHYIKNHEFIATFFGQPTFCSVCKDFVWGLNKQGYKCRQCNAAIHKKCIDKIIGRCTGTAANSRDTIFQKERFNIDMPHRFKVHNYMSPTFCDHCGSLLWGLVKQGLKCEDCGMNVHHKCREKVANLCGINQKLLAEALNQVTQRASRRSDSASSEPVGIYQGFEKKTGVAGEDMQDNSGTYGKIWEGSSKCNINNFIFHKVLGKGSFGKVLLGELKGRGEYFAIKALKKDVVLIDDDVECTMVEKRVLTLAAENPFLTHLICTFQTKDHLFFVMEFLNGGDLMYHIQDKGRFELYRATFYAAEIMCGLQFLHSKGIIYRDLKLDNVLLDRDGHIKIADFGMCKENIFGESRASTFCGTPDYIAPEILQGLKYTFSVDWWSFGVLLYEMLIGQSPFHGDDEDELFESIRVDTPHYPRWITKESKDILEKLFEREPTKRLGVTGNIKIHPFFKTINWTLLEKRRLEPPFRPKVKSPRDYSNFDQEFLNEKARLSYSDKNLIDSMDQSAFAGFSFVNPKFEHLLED

PIK3CA = PIK3CA (Homo sapiens (Human), UniProt P42336); test: KINOMEscan; format: binding
Sequence of PIK3CA (P42336 whole entry): as the sequence (P42336 whole entry I800L) above, with L800I counted along it

MAP3K1 = MAP3K1 (Homo sapiens (Human), UniProt Q13233); test: KINOMEscan; format: binding
BRAF (V600E) = BRAF (V600E) (Homo sapiens (Human), UniProt P15056, V600E); test: KINOMEscan; format: binding
CDC2L5 = CDC2L5 (Homo sapiens (Human), UniProt Q14004)
ERK5 = ERK5 (Homo sapiens (Human), UniProt Q13164); test: KINOMEscan; format: binding

`COc1ccc(N2C(=O)N(c3c(C)cccc3C)Cc3cnc(Nc4ccc(N5CCN(C)CC5)cc4)nc32)c(OC)c1` [HG-11-136-01] was tested, and the “KINOMEscan JNK2” value (JNK2) was 20, the “KINOMEscan CAMK2B” value (CAMK2B) was 90 and the “KINOMEscan SRMS” value (SRMS) was 0. The “KINOMEscan RPS6KA5 (Kin.Dom.2-C-terminal)” value [1] was 80, the “KINOMEscan LATS1” value (LATS1) was 100 and the “KINOMEscan RET (V804L)” value (RET (V804L)) was 24. The “KINOMEscan SGK” value (SGK) was 63, the “KINOMEscan NEK10” value (NEK10) was 9.6 and the “KINOMEscan ITK” value (ITK) was 66. The “KINOMEscan LYN” value (LYN) was 0, the “KINOMEscan EPHB1” value (EPHB1) was 0.3 and the “KINOMEscan FLT3 (ITD)” value (FLT3 (ITD)) was 57. The “KINOMEscan PIK3CA (I800L)” value (PIK3CA (I800L)) was 94, the “KINOMEscan PIM1” value (PIM1) was 100 and the “KINOMEscan FLT3 (D835Y)” value (FLT3 (D835Y)) was 14. For the same molecule, the “KINOMEscan RIPK2” value (RIPK2) was 0.1, the “KINOMEscan MLK2” value (MLK2) was 11 and the “KINOMEscan TAOK1” value (TAOK1) was 1. The “KINOMEscan STK39” value (STK39) was 28, the “KINOMEscan PRKD1” value (PRKD1) was 3.6 and the “KINOMEscan ABL2” value (ABL2) was 0.35. For the same molecule, the “KINOMEscan ABL1 (F317I)-phosphorylated” value [2] was 1.3, the “KINOMEscan LRRK2 (G2019S)” value (LRRK2 (G2019S)) was 6.6 and the “KINOMEscan MINK” value (MINK) was 2.8. The “KINOMEscan MUSK” value (MUSK) was 86, the “KINOMEscan INSR” value (INSR) was 48 and the “KINOMEscan ABL1 (Y253F)-phosphorylated” value [3] was 0.15. For the same molecule, the “KINOMEscan PIK3C2B” value (PIK3C2B) was 0.55, the “KINOMEscan DCAMKL1” value (DCAMKL1) was 51 and the “KINOMEscan FLT1” value (FLT1) was 5.2. The “KINOMEscan EPHB2” value (EPHB2) was 0, the “KINOMEscan LTK” value (LTK) was 18 and the “KINOMEscan MAPKAPK5” value (MAPKAPK5) was 96. For the same molecule, the “KINOMEscan CSNK1G1” value (CSNK1G1) was 92, the “KINOMEscan QSK” value (QSK) was 0.25 and the “KINOMEscan PRKCD” value (PRKCD) was 94. For the same molecule, the “KINOMEscan PIK3CA” value (PIK3CA) was 100, the “KINOMEscan MAP3K1” value (MAP3K1) was 73 and the “KINOMEscan BRAF (V600E)” value (BRAF (V600E)) was 13. The “KINOMEscan CDC2L5” value (CDC2L5) was 65 and the “KINOMEscan ERK5” value (ERK5) was 84.
